Test results from patent US20080280838A1, “Composition Containing Ginsenoside F1 and Egcg for Preventing Skin Damage” (Amorepacific Corporation, priority 2004, published 2008).

Legend:
[1] = tested on: HaCaT cells; test: MTT-reduction assay: antiapoptotic effect against UV-induced apoptosis in HaCaT cells; assay type: cell-based, Human; settings: 60 mJ/cm^2 UVB; for UV-caused apoptotic cell population compared with untreated control cells: 24 hours after UV irradiation
Procedure: (§1) Human keratinocyte HaCaT cell line was provided by Dr. N. E. Fusenig (Deutsches Krebsforschungszentrum(DKFZ), Heidelberg, Germany) and cultured in DMEM (Dulbecco's modified Eagle's medium, Gibco 1210-0038) supplemented with 10% fetal bovine serum. Cultures were incubated at 37° C., in humidified air with 5% CO2.
Cell lines cultured in Step 1 were treated with trypsin to give a single-cell suspension and seeded into a 6-well microplate at 2×10^5 cells per well, then cultured for 24 hours. Subsequently, the culture medium was refreshed with serum-free DMEM and cells were cultured for another 24 hours. The microplate was then treated with 2 μM ginsenoside F1; 10 μM EGCG; a combination of 2 μM ginsenoside F1 and 10 μM EGCG; 5 μM ginsenoside F1; and 50 μM EGCG in separate wells.
For reference, ginsenoside F1 was dissolved in 100% ethanol at a 1/1000-fold concentration to the medium and EGCG (Sigma) was dissolved in dimethyl sulfoxide (DMSO) at a 1/1000-fold concentration to the medium, and then added at the required amount to the culture mediums.
After 24-hour treatment of each test sample, each microplate was washed with phosphate buffered saline (PBS) and exposed to 60 mJ/cm^2 of UVB in the presence of PBS. PBS was then removed and the culture medium was refreshed with a medium containing each compound at the corresponding concentration. As a control, untreated cells were cultured in the same way.
24 hours after UV irradiation, to the microplates treated with each compound or untreated was added 3-(4,5-dimethyl thiazol-2-yl)-2,5-diphenyltetrazolium bromide (MTT, Sigma) solution, and then the cells were cultured at 37° C. for 4 hours. DMSO was added and dissolved completely. The optical density (OD) of formazan formed at 540 nm was measured using an ELISA reader (Thermo Max, Molecular Devices Co.). Cell viability in each test group was evaluated as a relative value, considering OD of untreated control cells as 100%.

[2] = tested on: Bcl-2; test: Western-blot analysis of UV-induced down-regulation of Bcl-2 expression in HaCaT cells; assay type: cell-based, Human; settings: 60 mJ/cm^2 UVB
Procedure: as §1
Cell lines cultured in Step 1 were treated with trypsin to give a single-cell suspension and seeded into 6-well microplates at […] per well, then cultured for 24 hours. Subsequently, the culture medium was refreshed with serum-free DMEM and cells were cultured for another 24 hours. The microplates were then treated with 2 μM ginsenoside F1; 10 μM EGCG; a combination of 2 μM ginsenoside F1 and 10 μM EGCG; 5 μM ginsenoside F1; and 50 μM EGCG, respectively. Ginsenoside F1 was dissolved in 100% ethanol at a 1/1000-fold concentration to the medium and EGCG (Sigma) was dissolved in DMSO at a 1/1000-fold concentration to the medium. […]
24 hours after UV irradiation, cells treated with each compound or untreated were washed with PBS and harvested by treating with trypsin. […] Supernatants were collected by centrifugation at 15,000×g for 10 minutes at 4° C. and protein concentrations were determined using BIO-Rad Protein Dye Reagent™. […] The bands on the film were scanned using PowerLook 2100 XL (UMAX) and analyzed with ImageMaster 2D Elite software (Amersham Biosciences).

For O=C(O[C@@H]1Cc2c(O)cc(O)cc2O[C@@H]1c1cc(O)c(O)c(O)c1)c1cc(O)c(O)c(O)c1 [EGCG, (−)epigallocatechin-3-gallate], the “UV-caused apoptotic cell population compared with untreated control cells” value ([1]; 10 μM EGCG alone) was “no difference”, the “antiapoptotic effect relative to combined treatment (2 μM ginsenoside F1 and 10 μM EGCG)” value ([1]; 50 μM EGCG alone) was “similar” and the “Bcl-2 expression compared with the untreated control group” value ([2]; 10 μM EGCG alone) was “no difference”.

CC(C)=CCC[C@](C)(O[C@@H]1O[C@H](CO)[C@@H](O)[C@H](O)[C@H]1O)[C@H]1CC[C@]2(C)[C@@H]1[C@H](O)C[C@@H]1[C@@]3(C)CC[C@H](O)C(C)(C)[C@@H]3[C@@H](O)C[C@]12C [ginsenoside F1, 20-O-β-D-glucopyranosyl-20(S)-protopanaxatriol] was tested, and the “UV-caused apoptotic cell population compared with untreated control cells” value ([1]; 2 μM ginsenoside F1 alone) was “no difference”, the “antiapoptotic effect relative to combined treatment (2 μM ginsenoside F1 and 10 μM EGCG)” value ([1]; 5 μM ginsenoside F1 alone) was “similar” and the “Bcl-2 expression compared with the untreated control group” value ([2]; 2 μM ginsenoside F1 alone) was “no difference”.
